Laboratory results from patent US12696901B2, “Pesticidally active heterocyclic derivatives with sulfur containing substituents” (SYNGENTA CROP PROTECTION AG, priority 2020, dated 2026).

Legend:
Format in all cases: in vivo
[1] = test system: Bemisia tabaci (Cotton White Fly); test: Activity against Bemisia tabaci (cotton white fly), sprayed cotton leaf discs; settings: foliar, 144 h, application rate 200 ppm, adult white flies, 6 days after incubation
Protocol: Example B1: Activity Against Bemisia tabaci (Cotton White Fly)
Cotton leaf discs were placed on agar in 24-well microtiter plates and sprayed with aqueous test solutions prepared from 10,000 ppm DMSO stock solutions. After drying the leaf discs were infested with adult white flies. The samples were checked for mortality 6 days after incubation.

[2] = test system: Diabrotica balteata (Corn Root Worm); test: Activity against Diabrotica balteata (corn root worm), sprayed maize sprouts on agar; settings: 96 h, application rate 200 ppm, L2 larvae, 4 days after infestation, read-out: effect in at least one of the two categories (mortality or growth inhibition)
Protocol: Example B2: Activity Against Diabrotica balteata (Corn Root Worm)
Maize sprouts placed onto an agar layer in 24-well microtiter plates were treated with aqueous test solutions prepared from 10,000 ppm DMSO stock solutions by spraying. After drying, the plates were infested with L2 larvae (6 to 10 per well). The samples were assessed for mortality and growth inhibition in comparison to untreated samples 4 days after infestation.

[3] = test system: Euschistus heros (Neotropical Brown Stink Bug); test: Activity against Euschistus heros (neotropical brown stink bug), sprayed soybean leaves; settings: 120 h, application rate 200 ppm, N2 nymphs, 5 days after infestation, read-out: effect in at least one of the two categories (mortality or growth inhibition)
Protocol: Example B3: Activity Against Euschistus heros (Neotropical Brown Stink Bug)
Soybean leaves on agar in 24-well microtiter plates were sprayed with aqueous test solutions prepared from 10,000 ppm DMSO stock solutions. After drying the leaves were infested with N2 nymphs. The samples were assessed for mortality and growth inhibition in comparison to untreated samples 5 days after infestation.

[4] = test system: Plutella xylostella (Diamond Back Moth); test: Activity against Plutella xylostella (diamond back moth), treated artificial diet; settings: 192 h, application rate 200 ppm, eggs, 8 days after infestation, read-out: effect in at least one of the two categories (mortality or growth inhibition)
Protocol: Example B5: Activity Against Plutella xylostella (Diamond Back Moth)
24-well microtiter plates with artificial diet were treated with aqueous test solutions prepared from 10,000 ppm DMSO stock solutions by pipetting. After drying, Plutella eggs were pipetted through a plastic stencil onto a gel blotting paper and the plate was closed with it. The samples were assessed for mortality and growth inhibition in comparison to untreated samples 8 days after infestation.

[5] = test system: Myzus persicae (Green Peach Aphid); test: Activity against Myzus persicae (green peach aphid), feeding/contact activity; settings: 144 h, application rate 200 ppm, mixed ages, 6 days after infestation
Protocol: Example B6: Activity Against Myzus persicae (Green Peach Aphid) Feeding/Contact Activity
Sunflower leaf discs were placed onto agar in a 24-well microtiter plate and sprayed with aqueous test solutions prepared from 10,000 ppm DMSO stock solutions. After drying, the leaf discs were infested with an aphid population of mixed ages. The samples were assessed for mortality 6 days after infestation.

[6] = test system: Spodoptera littoralis (Egyptian Cotton Leaf Worm); test: Activity against Spodoptera littoralis (Egyptian cotton leaf worm), sprayed cotton leaf discs; settings: foliar, 72 h, application rate 200 ppm, L1 larvae, 3 days after infestation
Protocol: Example B7: Activity Against Spodoptera littoralis (Egyptian Cotton Leaf Worm)
Cotton leaf discs were placed onto agar in 24-well microtiter plates and sprayed with aqueous test solutions prepared from 10,000 ppm DMSO stock solutions. After drying the leaf discs were infested with five L1 larvae. The samples were assessed for mortality, anti-feeding effect, and growth inhibition in comparison to untreated samples 3 days after infestation. Control of Spodoptera littoralis by a test sample is given when at least one of the categories mortality, anti-feedant effect, and growth inhibition is higher than the untreated sample.

[7] = test system: Carpocapsa (Cydia) Pomonella (Codling Moth); test: Activity against Carpocapsa (Cydia) pomonella (codling moth), sprayed diet cubes; settings: 336 h, application rate 12.5 ppm, L1 larvae, 14 days after infestation, read-out: effect in at least one of the two categories (mortality or growth inhibition)
Protocol: Example B11: Activity Against Carpocapsa (Cydia) Pomonella (Codling Moth)
Diet cubes coated with paraffin were sprayed with diluted test solutions in an application chamber. After drying off the treated cubes (10 replicates) were infested with 1 L1 larvae. Samples were incubated at 26-27° C. and checked 14 days after infestation for mortality and growth inhibition. The following compounds gave an effect of at least 80% in at least one of the two categories (mortality or growth inhibition) at an application rate of 12.5 ppm: P1, P2, P3, P4, P5, P6, P10, P11, P12, P14, P15, P16, P17, P19, P20, P21, P22, P24, P27, P29, P30, P33, P34, P35.

[8] = test system: Diabrotica balteata (Corn Root Worm); test: Activity against Diabrotica balteata (corn root worm), corn seedlings on filter paper in cups; settings: 120 h, application rate 3 ppm, L2 larva, 5 days after treatment, read-out: effect in at least one of the two categories (mortality or growth inhibition)
Protocol: Example B12: Activity Against Diabrotica Balteata (Corn Root Worm)
Three corn seedlings were placed on wetted filter paper in plastic cups, and 3 ml of diluted test solutions were pipetted onto them. The cups were infested with 10 L2 larva and checked for mortality and growth regulation 5 days after treatment.

[9] = test system: Chilo suppressalis (Striped Rice Stemborer); test: Activity against Chilo suppressalis (striped rice stemborer), treated artificial diet; settings: 144 h, application rate 200 ppm, L2 larvae, 6 days after infestation
Protocol: Example B10: Activity Against Chilo suppressalis (Striped Rice Stemborer)
24-well microtiter plates with artificial diet were treated with aqueous test solutions prepared from 10,000 ppm DMSO stock solutions by pipetting. After drying, the plates were infested with L2 larvae (6-8 per well). The samples were assessed for mortality, anti-feeding effect, and growth inhibition in comparison to untreated samples 6 days after infestation. Control of Chilo suppressalis by a test sample is given when at least one of the categories mortality, anti-feedant effect, and growth inhibition is higher than the untreated sample.

CCS(=O)(=O)c1c(N2Cc3cnc(C(F)(F)F)cc3C2=O)sc2cc(C(F)(F)F)ccc12 [Compound P1, 2-[3-ethylsulfonyl-6-(trifluoromethyl)benzothiophen-2-yl]-6-(trifluoromethyl)-3H-pyrrolo[3,4-c]pyridin-1-one]
≥ 80%: mortality at 200 ppm [1] | percent effect (mortality or growth inhibition) at 200 ppm [2] | percent effect (mortality or growth inhibition) at 200 ppm [3] | percent effect (mortality or growth inhibition) at 200 ppm [4] | mortality at 200 ppm [5] | percent control (mortality, anti-feedant effect or growth inhibition) at 200 ppm [6] | percent effect (mortality or growth inhibition) at 12.5 ppm [7] | percent effect (mortality or growth inhibition) at 3 ppm [8]

CCS(=O)(=O)c1c(N2Cc3ccc(OC(F)(F)F)cc3C2=O)nc2cc(C(F)(F)F)ccn12 [Compound P7, 2-[3-ethylsulfonyl-7-(trifluoromethyl)imidazo[1,2-a]pyridin-2-yl]-6-(trifluoromethoxy) isoindolin-1-one]
≥ 80%: mortality at 200 ppm [1] | percent effect (mortality or growth inhibition) at 200 ppm [2] | percent effect (mortality or growth inhibition) at 200 ppm [4] | mortality at 200 ppm [5] | percent control (mortality, anti-feedant effect or growth inhibition) at 200 ppm [6] | percent effect (mortality or growth inhibition) at 3 ppm [8]

CCS(=O)(=O)c1c(N2Cc3ncc(C(F)(F)F)cc3C2=O)nc2cc(OCC(F)(F)F)ccn12 [Compound P12, 6-[3-ethylsulfonyl-7-(2,2,2-trifluoroethoxy)imidazo[1,2-a]pyridin-2-yl]-3-(trifluoromethyl)-7H-pyrrolo[3,4-b]pyridin-5-one]
≥ 80%: percent effect (mortality or growth inhibition) at 200 ppm [2] | percent effect (mortality or growth inhibition) at 200 ppm [3] | percent effect (mortality or growth inhibition) at 200 ppm [4] | mortality at 200 ppm [5] | percent control (mortality, anti-feedant effect or growth inhibition) at 200 ppm [6] | percent control (mortality, anti-feedant effect or growth inhibition) at 200 ppm [9] | percent effect (mortality or growth inhibition) at 12.5 ppm [7] | percent effect (mortality or growth inhibition) at 3 ppm [8]

CCS(=O)(=O)c1c(N2Cc3ncc(C(F)(F)F)cc3C2=O)nc2ccc(OCC(F)F)cn12 [Compound P19, 6-[6-(2,2-difluoroethoxy)-3-ethylsulfonyl-imidazo[1,2-a]pyridin-2-yl]-3-(trifluoromethyl)-7H-pyrrolo[3,4-b]pyridin-5-one]
≥ 80%: percent effect (mortality or growth inhibition) at 200 ppm [2] | percent effect (mortality or growth inhibition) at 200 ppm [3] | percent effect (mortality or growth inhibition) at 200 ppm [4] | mortality at 200 ppm [5] | percent control (mortality, anti-feedant effect or growth inhibition) at 200 ppm [6] | percent control (mortality, anti-feedant effect or growth inhibition) at 200 ppm [9] | percent effect (mortality or growth inhibition) at 12.5 ppm [7] | percent effect (mortality or growth inhibition) at 3 ppm [8]

CCS(=O)(=O)c1c(N2Cc3ncc(C(F)(F)F)cc3C2=O)nc2ccc(OC(C)(C)C#N)cn12 [Compound P20, 2-[3-ethylsulfonyl-2-[5-oxo-3-(trifluoromethyl)-7H-pyrrolo[3,4-b]pyridin-6-yl]imidazo [1,2-a]pyridin-6-yl] oxy-2-methyl-propanenitrile]
≥ 80%: mortality at 200 ppm [1] | percent effect (mortality or growth inhibition) at 200 ppm [2] | percent effect (mortality or growth inhibition) at 200 ppm [4] | mortality at 200 ppm [5] | percent control (mortality, anti-feedant effect or growth inhibition) at 200 ppm [6] | percent control (mortality, anti-feedant effect or growth inhibition) at 200 ppm [9] | percent effect (mortality or growth inhibition) at 12.5 ppm [7] | percent effect (mortality or growth inhibition) at 3 ppm [8]

CCS(=O)(=O)c1c(N2Cc3ncc(C(F)(F)F)cc3C2=O)nc2ccc(Br)cn12 [Compound P21, 6-(6-bromo-3-ethylsulfonyl-imidazo[1,2-a]pyridin-2-yl)-3-(trifluoromethyl)-7H-pyrrolo[3,4-b]pyridin-5-one]
≥ 80%: percent effect (mortality or growth inhibition) at 200 ppm [2] | percent effect (mortality or growth inhibition) at 200 ppm [3] | percent effect (mortality or growth inhibition) at 200 ppm [4] | mortality at 200 ppm [5] | percent control (mortality, anti-feedant effect or growth inhibition) at 200 ppm [6] | percent control (mortality, anti-feedant effect or growth inhibition) at 200 ppm [9] | percent effect (mortality or growth inhibition) at 12.5 ppm [7] | percent effect (mortality or growth inhibition) at 3 ppm [8]

CCS(=O)(=O)c1c(N2Cc3ncc(C(F)(F)F)cc3C2=O)nc2cc(C3CC3)ccn12 [Compound P24, 6-(7-cyclopropyl-3-ethylsulfonyl-imidazo[1,2-a]pyridin-2-yl)-3-(trifluoromethyl)-7H-pyrrolo[3,4-b]pyridin-5-one]
≥ 80%: percent effect (mortality or growth inhibition) at 200 ppm [2] | percent effect (mortality or growth inhibition) at 200 ppm [3] | percent effect (mortality or growth inhibition) at 200 ppm [4] | mortality at 200 ppm [5] | percent control (mortality, anti-feedant effect or growth inhibition) at 200 ppm [6] | percent control (mortality, anti-feedant effect or growth inhibition) at 200 ppm [9] | percent effect (mortality or growth inhibition) at 12.5 ppm [7] | percent effect (mortality or growth inhibition) at 3 ppm [8]

CCS(=O)(=O)c1c(N2Cc3ccc(OC(F)(F)F)cc3C2=O)nc2ccc(OC(C)(C)C#N)cn12 [Compound P26, 2-[3-ethylsulfonyl-2-[1-oxo-6-(trifluoromethoxy)isoindolin-2-yl]imidazo[1,2-a]pyridin-6-yl]oxy-2-methyl-propanenitrile]
≥ 80%: mortality at 200 ppm [1] | percent effect (mortality or growth inhibition) at 200 ppm [2] | percent effect (mortality or growth inhibition) at 200 ppm [4] | mortality at 200 ppm [5] | percent control (mortality, anti-feedant effect or growth inhibition) at 200 ppm [6] | percent control (mortality, anti-feedant effect or growth inhibition) at 200 ppm [9] | percent effect (mortality or growth inhibition) at 3 ppm [8]
